Data as given in patent US20250025490A1, “INDUCTION OF TRAINED IMMUNITY FOR THE TREATMENT OF HYPERPROLIFERATIVE DISORDERS” (priority 2021, published 2025).

How the values were obtained:
Assay type in all cases: cell-based, mice
peritoneal macrophages [1] = assay: In vitro training and re-stimulation of peritoneal macrophages (Example 2), TNF-α ELISA
Method: Isolation and culture of peritoneal macrophages. Mice were euthanized with CO2 inhalation and injected i.p. with 5 ml of sterile cold, complete DMEM medium (Sigma Aldrich) followed by gentle massage of the peritoneum. The peritoneal fluid was then collected, centrifuged at 1600 rpm for 5 min. The cell pellet was washed, counted, and plated at appropriate numbers in complete DMEM. The cells were incubated for 2-4 hours at 37° C. and 5% CO2 to allow peritoneal macrophages attached to the plates. The floating cells were aspirated and plates were gently washed with sterile pre-warmed medium and then added with fresh complete DMEM. For comparison studies between different mouse strains, peritoneal cells were stained with viability dye and anti-F4/80 antibodies (Biolegend) and F4/80^+ macrophages were sorted by FACS Aria III (BD Bioscience).
In vitro training and re-stimulation of peritoneal macrophages. Peritoneal macrophages were treated with 25 μg/ml of WGP or polystyrene beads (3 μm, Sigma-Aldrich) and incubated for 24 h at 37°° C. with 5% CO2. Macrophages were then washed with pre-warmed complete DMEM at least twice to remove excess WGP or polystyrene beads, added with fresh complete DMEM and incubated 6 days. On day 7, macrophages were re-stimulated with different stimuli such as LPS (10 ng/ml) (Sigma), tumor cells, tumor cell culture supernatants (40%) or rMIF (100 ng/ml) (kindly provided by Dr. Robert Mitchell) for 24 h. The culture supernatants were harvested and assayed for TNF-α by ELISA. For cell culture supernatants, tumor cell lines including LLC, B16F10, and EL4, and control cell line MLE-12 were used.
These cell lines were cultured (1 million/4 ml complete DMEM) in a 6-well plate and incubated for 72 h. The supernatants were harvested and stored at −80° C. in aliquots.
ELISA for TNF-α and MIF. TNF-α in the culture supernatants was measured using TNF-α ELISA kit (Biolegend) and MIF levels in the culture supernatants were quantified using mouse MIF ELISAkit (R&D Systems) per the manufacturer's instruction.
In vitro training with S1P. Peritoneal macrophages were stimulated with 200 nM or 300 nM of S1P for 24 h at 37° C. and 5% CO2. The macrophages were then washed and allowed for resting. On day 7, the macrophages were stimulated with LPS (10 ng/ml) or LLC culture supernatant (40%) for 24 h and the supernatants were collected for the quantification of TNF-α using ELISA. For another set of in vitro-training experiment, macrophages were trained with S1P in the presence of Mdivi-1 (10 μM) during S1P training and throughout the resting period. Cells were restimulated with LPS and the supernatants were collected to determine TNF-α levels by ELISA.
[…] The inhibitors were further added to the macrophage cultures and incubated at 37° C. and 5% CO2 for 6 more days. On day 7, the macrophages were washed once with pre-warmed complete DMEM and added LPS (10 ng/ml) or LLC culture supernatant (40%) for re-stimulation.

KPC tumor cells = assay: Cytotoxicity assay of pancreatic CD11b+ cells against KPCLuc+ cells; settings: NAC 1 mM
Method: The pancreas from WGP and PBS treated mice were harvested and the CD11b^+ populations were isolated using magnetic CD11b^+ MicroBeads (Miltenyi Biotec) and an autoMACS Pro Separator (Miltenyi Biotec). Purified CD11b^+ cells were then washed and counted, and these were plated at a ratio of 1:20 tumor:effector cells in a 96 well plate. All experimental samples were run in triplicate. After plating the CD11b^+ cells, the ROS inhibitor […] (NAC) (Sigma Aldrich) was added to one set of PBS and WGP derived cells at 1 mM for 1 hour before the addition of 5000 luciferase expressing KPC^+ pancreatic tumor cells to all wells. After 24 hours, of coculture, the plates were centrifuged and 20 μL of the supernatant was mixed with 100 μL of the Luciferase Assay Reagent (Promega). Luciferase activity measured in the supernatant correlated with tumor cells that had been killed by the effector cells and was measured using a luminometer (Femtomaster FB 12, Zylux Corporation). The spontaneous luciferase signal from plated tumor cells was subtracted from the measurement of the supernatant. Luciferase values are represented as Relative Light Units (RLUs).

Drp-1 = assay: p-Drp-1 / Drp-1 by flow cytometry and Western blot
Method: (§1) Mitochondrial ROS quantitation. Peritoneal macrophages were treated with WGP or S1P in the presence or absence of Mdivi-1 and incubated at 37° C. with 5% CO2 for 24 h. The cells were then harvested, washed with PBS and pelleted by centrifugation at 1600 rpm for 5 min at room temperature. The pellets were then stained with MitoSOX Red dye (5 μM) (Invitrogen) at 37° C. for 15 min. The cells were washed with pre-warmed HBSS followed by another wash with PBS at room temperature. The cells were then stained with viability dye and anti-F4/80 and then acquired by flow cytometry. Flow cytometry for p-Drp-1. Peritoneal macrophages were treated with WGP (25 μg/ml) or S1P (1 μM) and incubated at 37° C. with 5% CO2 for 3-4 h. Following the completion of incubation, the cells were quickly washed with cold PBS to stop the activation. The cells were harvested and washed with PBS. The cells were then fixed with 4% formaldehyde for 15 min at room temperature, washed with PBS and permeabilized using ice-cold 100% methanol on ice for a minimum of 10 min. The cells were then stained with primary antibody (p-Drp1) (Cell Signaling) for 1 hour at room temperature followed by secondary antibody (Anti-rabbit IgG) (Biolegend) for 30 min at room temperature as instructed in the Cell Signaling phospho-stain protocol and analyzed using flow cytometry.
Western blot analysis for total Drp-1 and p-Drp-1. […]

peritoneal macrophages [2] = assay: Mitochondrial ROS quantitation (MitoSox Red); settings: peritoneal macrophages, 24 h
Method: as §1

SMILES: CCCC[C@@H](C)[C@@H](OC(=O)C[C@@H](CC(=O)O)C(=O)O)[C@H](C[C@@H](C)C[C@H](O)CCCC[C@@H](O)C[C@H](O)[C@H](C)N)OC(=O)C[C@@H](CC(=O)O)C(=O)O [Fumonisin-B1]
- effect on WGP-mediated trained response (TNF-α) (peritoneal macrophages [1]; Fumonisin-B1 25 μM, LPS and LLC supernatants): abrogated WGP-mediated trained response

SMILES: CC(=O)N[C@@H](CS)C(=O)O [NAC, N-Acetyl Cysteine]
- effect of ROS inhibition on WGP-elicited cytotoxicity (KPC tumor cells): completely abrogated the WGP-elicited increase in cytotoxicity

SMILES: CCCCCCCCCCCCC/C=C/[C@@H](O)[C@@H](N)COP(=O)(O)O [S1P, sphingosine-1-phosphate]
- phosphorylation of Drp-1 (Drp-1; peritoneal macrophages): significantly increased p-Drp-1 in macrophages
- TNF-α production of macrophages trained with S1P (peritoneal macrophages [1]; S1P 200 nM or 300 nM, LPS or LLC supernatant restimulation): showed significantly higher TNF-α production compared to the untrained controls
- mtROS production (peritoneal macrophages [2]): exhibited an enhanced mtROS production

SMILES: O=C(NCc1ccncc1)C12CC3CC(C1)CC(c1ccc(Cl)cc1)(C3)C2 [Sphk2i]
- effect on p-Drp-1 in WGP-treated macrophages (Drp-1; Sphk2i 50 μM, 3 h and 6 h): decreased the level of p-Drp-1 but not total Drp-1
- effect on WGP trained responses (TNF-α) (peritoneal macrophages [1]; Sphk2i 25 μM or 50 μM, LPS and LLC supernatant): completely attenuated the trained responses
